Columns and labels:
Assay type in all cases: in vivo
[1] = test system: Setaria viridis (SETVI); assay: A. Herbicidal pre-emergence efficacy, SETVI
Method in brief: (§1)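 Applied before emergence onto covering soil at rates of 1280 g/ha or less, using 600 L/ha spray water with 0.5% additive. Scoring: visual % efficacy after ~3 weeks, greenhouse.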

[2] = test system: Amaranthus retroflexus (AMARE); assay: B. Herbicidal post-emergence efficacy, AMARE
Method in brief: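 First, seeds were sown in sandy loam and grown 2 to 3 weeks under controlled greenhouse conditions. Next, foliage at the one-leaf stage received the formulated compound in water with 0.5% additive (600 L/ha, 1280 g/ha or less). Finally, damage was rated visually after about 3 weeks against untreated plants.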

[3] = test system: Pharbitis purpurea (PHBPU); assay: E. Herbicidal post-emergence efficacy, PHBPU
Method in brief: (§2)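 Visual scoring against untreated plants was done roughly 3 weeks after spraying (0% = no effect, 100% = plants dead). Spray application at 320 g/ha or lower, 600 l/ha water with 0.5% additive, was made onto green parts of one-leaf-stage greenhouse plants grown 2-3 weeks in sandy loam.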

[4] = test system: Triticum aestivum (TRZAS); assay: F. Post-emergence effect on useful plants, TRZAS; settings: useful plant
Method in brief: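 Visual efficacy rating versus untreated plants, from 0% (no effect) to 100% (plants died), made about 3 weeks after post-emergence treatment. Formulated compounds (WP or EC, 0.5% additive, 600 l/ha water) were sprayed onto greenhouse-grown crops at the one-leaf stage, 2-3 weeks after sowing.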

[5] = test system: Kochia scoparia (KCHSC); assay: E. Herbicidal post-emergence efficacy, KCHSC
Method in brief: as §2

[6] = test system: Polygonum convolvulus (POLCO); assay: C. Herbicidal pre-emergence efficacy, POLCO; settings: scored after about 3 weeks
Method in brief: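 Pre-emergence test: formulated compounds sprayed as aqueous suspension or emulsion with 0.5% additive at 600 l/ha onto soil covering sown seeds, at rates corresponding to 320 g/ha or less. After about 3 weeks in greenhouse, efficacy scored visually as percent versus untreated controls (100% = plants dead).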

[7] = test system: Veronica persica (VERPE); assay: A. Herbicidal pre-emergence efficacy, VERPE; settings: for Pre-emergence efficacy against VERPE: dosage 80 g/ha
Method in brief: as §1

[8] = test system: Lolium rigidum (LOLRI); assay: A. Herbicidal pre-emergence efficacy, LOLRI
Method in brief: as §1

Compound	Pre-emergence efficacy against SETVI ([1]; dosage 80 g/ha) [%]	Pre-emergence efficacy against SETVI ([1]; dosage 320 g/ha) [%]	Pre-emergence efficacy against SETVI ([1]; dosage 1280 g/ha) [%]	Post-emergence efficacy against AMARE ([2]; 320 g/ha) [%]	Post-emergence efficacy against AMARE ([2]; 1280 g/ha) [%]	Post-emergence efficacy against PHBPU in % ([3]; application rate 80 g/ha) [%]	Post-emergence efficacy against PHBPU in % ([3]; application rate 320 g/ha) [%]	Post-emergence efficacy against TRZAS in % ([4]; application rate 80 g/ha) [%]	Post-emergence efficacy against TRZAS in % ([4]; application rate 320 g/ha) [%]	Post-emergence efficacy against KCHSC in % ([5]; application rate 80 g/ha) [%]	Post-emergence efficacy against KCHSC in % ([5]; application rate 320 g/ha) [%]	Pre-emergence efficacy against POLCO ([6]; 80 g/ha) [%]	Pre-emergence efficacy against POLCO ([6]; 320 g/ha) [%]	Pre-emergence efficacy against VERPE in % ([7]; 320 g/ha) [%]	Pre-emergence efficacy against VERPE in % ([7]; 1280 g/ha) [%]	Pre-emergence efficacy against VERPE [7] [%]	Pre-emergence efficacy against LOLRI ([8]; dosage 320 g/ha) [%]	Pre-emergence efficacy against LOLRI ([8]; dosage 1280 g/ha) [%]	Post-emergence efficacy against AMARE ([2]; 80 g/ha) [%]
O=S(=O)(CCC(F)(F)F)Oc1c(F)cccc1Oc1ncc(Br)cn1 [Example I-40]	100	100	100	90	90	100	100	10	20	100	100	100	100	100	100	100	100	100	
O=S(=O)(CCCC(F)F)Oc1c(F)cccc1Oc1ncc(Cl)cn1 [Example I-56]	100	100	100	90	90	100	100	10		100	100	100	100	100	100		100	100	90
C=CCCS(=O)(=O)Oc1c(F)cccc1Oc1ncc(Cl)cn1 [Example I-50]	90	90	100	90	100	90	90	0	10	80	100	80	90	100	100	90	90	90	90
Cc1cccc(Oc2ncc(F)cn2)c1OS(=O)(=O)CCC(F)(F)F [Example I-45]	90	100	100					0	0		90	100	100	100	100		100	100	
C=CCS(=O)(=O)Oc1ccccc1Oc1ncc(Cl)cn1 [Example I-36]			100	90	100			0	0		90		90		100			100	
O=S(=O)(CCC(F)=C(F)F)Oc1c(F)cccc1Oc1ncc(Cl)cn1 [Example I-70]						80	100	20		90	100	100	100						
O=S(=O)(CCCC(F)(F)F)Oc1c(F)cccc1Oc1ncc(Br)cn1 [Example I-41]	100	100	100	90	90	100	100	0		100	100	100	100	100	100	90	100	100	
O=S(=O)(CCC1CC1)Oc1c(F)cccc1Oc1ncc(Cl)cn1 [Example I-55]	100	100	100	90	90	90	100	20		80	90	90	90	100	100			100	90
O=S(=O)(CCC(F)=C(F)F)Oc1c(Cl)cccc1Oc1ncc(Cl)cn1 [Example I-73]		90	100	100	100			0	20	90	90		90		100			90	100
COCCS(=O)(=O)Oc1c(F)cccc1Oc1ncc(Cl)cn1 [Example I-52]		100	100	90	90			0	0	90	100	90	100	100	100			100	
O=S(=O)(CCC(F)(F)F)Oc1c(F)cccc1Oc1ncc(F)cn1 [Example I-47]	100	100	100			90	100	0		100	100	100	100	100	100	90	100	100	
O=S(=O)(CCCC(F)(F)F)Oc1c(Cl)cccc1Oc1ncc(Br)cn1 [Example I-34]	90	90	100	100	100	80	100	0	20	100	100		100	90	100				100
N#Cc1cccc(Oc2ncc(Cl)cn2)c1OS(=O)(=O)CCCC(F)(F)F [Example I-81]						90	100	0		100	100	80	90						
Cc1cccc(Oc2ncc(F)cn2)c1OS(=O)(=O)CCCC(F)(F)F [Example I-46]	90	100	100			80	90	0	10		100	90	100	90	100	90	100	100	
O=S(=O)(CCC(F)(F)F)Oc1c(Br)cccc1Oc1ncc(F)cn1 [Example I-43]		100	100			80	90	0	0	90	100	90	90	100	100		100	100	

From US20240174618A1, “SUBSTITUTED (2-HETEROARYLOXYPHENYL)SULFONATES, SALTS THEREOF AND THEIR USE AS HERBICIDAL AGENTS” (Bayer Aktiengesellschaft, priority 2021, published 2024)
